Structures can show the parent of a compound that is named as a salt.
biological target: T1, IRAK4 (Homo sapiens, UniProt Q9NWZ3); assay: IRAK4 Enzymatic Assay; assay type: biochemical; details: His-TEV-IRAK4 20 ng/well, ATP 2 μM, STK1-biotin peptide 300 nM, 3 hours at 30° C., FlashPlate radioactivity
T1 construct: His (N); TEV cleavage site (N)
T1 sequence (Q9NWZ3 1-460): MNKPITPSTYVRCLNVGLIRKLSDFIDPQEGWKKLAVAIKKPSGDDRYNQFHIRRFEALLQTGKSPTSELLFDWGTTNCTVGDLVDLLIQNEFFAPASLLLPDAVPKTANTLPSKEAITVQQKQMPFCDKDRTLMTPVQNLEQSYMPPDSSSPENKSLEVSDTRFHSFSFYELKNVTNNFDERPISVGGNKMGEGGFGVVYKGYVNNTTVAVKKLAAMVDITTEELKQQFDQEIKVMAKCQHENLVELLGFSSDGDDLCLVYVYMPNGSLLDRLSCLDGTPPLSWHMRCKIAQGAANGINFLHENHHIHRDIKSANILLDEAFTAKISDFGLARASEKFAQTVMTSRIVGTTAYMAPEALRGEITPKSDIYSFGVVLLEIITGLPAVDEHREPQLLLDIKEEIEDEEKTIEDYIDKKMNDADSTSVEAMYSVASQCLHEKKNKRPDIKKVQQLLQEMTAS
Experimental: IRAK4 is a human purified recombinant enzyme (His-TEV-IRAK1 (194-712)
IRAK4 hydrolyses ATP, autophosphorylates and phosphorylates a Serine/Threonine generic peptidic substrate (STK: 61ST1BLC from CisBio International based in Bagnols/Cèze FR).
Measurement of IRAK-4 inhibition is performed in streptavidin coated 384 well FlashPlate (PerkinElmer #SMP410A). His-TEV-IRAK4 (20 ng/well), ATP (2 μM, [^33P]ATP 0.25 μCi/well), STK1-biotin peptide (300 nM) and compounds in DMSO (range of concentrations from 20 μM to 1nM) or controls (2% DMSO) are incubated for 3 hours at 30° C. in assay buffer: Hepes pH7.0 50 mM, Fatty acid-free BSA 0.1%, Dithiothreitol DTT 2 mM, MgCl2 10 mM, EGTA 0.5 mM, Tween-20 0.01%, MnCl2 5 mM.
Kinase reaction is stopped by addition of EDTA. Supernatant is discarded, plates are washed three times with 150 mM NaCl and radioactivity is then measured in a Microbeta Trilux reader.

IC50 [nM] | Compound
100 to 1000 | Cc1cc(-c2cccc(-c3ncc(-c4cnn(C5CCOCC5)c4)cn3)c2)cnn1 [Example 138, 3-Methyl-5-(3-{5-[1-(tetrahydro-pyran-4-yl)-1H-pyrazol-4-yl]-pyrimidin-2-yl}-phenyl)-pyridazine]
100 to 1000 | Cn1cc(-c2cccc(-c3ncc(-c4cnn(CC(=O)N5C6CCC5CC(O)C6)c4)cn3)c2)cn1 (centres unmarked) [Example 127, 1-(3-Hydroxy-8-aza-bicyclo[3.2.1]oct-8-yl)-2-(4-{2-[3-(1-methyl-1H-pyrazol-4-yl)-phenyl]-pyrimidin-5-yl}-pyrazol-1-yl)-ethanone]
< 100 | Cn1cc(-c2cccc(-c3ncc(-c4cnn([C@H]5CCC[C@@H](N6CCOC6=O)C5)c4)cn3)c2)cn1 (relative stereo) [Example 257, 3-[cis-3-(4-{2-[3-(1-Methyl-1H-pyrazol-4-yl)-phenyl]-pyrimidin-5-yl}-pyrazol-1-yl)-cyclohexyl]-oxazolidin-2-one]
100 to 1000 | Cn1cc(-c2cccc(-c3ncc(-c4cnn(C5CCOC5)c4)cn3)c2)cn1 (centres unmarked) [Example 12, 2-[3-(1-Methyl-1H-pyrazol-4-yl)-phenyl]-5-[1-(tetrahydro-furan-3-yl)-1H-pyrazol-4-yl]-pyrimidine]
100 to 1000 | Cn1cc(-c2cccc(-c3ncc(-c4cnn(C5CCN(C(=O)C6CCCCO6)CC5)c4)cn3)c2)cn1 (centres unmarked) [Example 108, [4-(4-{2-[3-(1-Methyl-1H-pyrazol-4-yl)-phenyl]-pyrimidin-5-yl}-pyrazol-1-yl)-piperidin-1-yl]-(tetrahydro-pyran-2-yl)-methanone]
1000 to 5000 | NCCn1cc(-c2cccc(-c3ncc(-c4cnn(CC(=O)N5CCCC5)c4)cn3)c2)cn1 [Example 50, 2-[4-(2-{3-[1-(2-Amino-ethyl)-1H-pyrazol-4-yl]-phenyl}-pyrimidin-5-yl)-pyrazol-1-yl]-1-pyrrolidin-1-yl-ethanone hydrochloride]
< 100 | COCC(C)NC(=O)[C@H]1CC[C@H](n2cc(-c3cnc(-c4cccc(-c5cnn(C)c5)c4)nc3)cn2)CC1 (some centres unmarked) [Example 178, 4-(4-{2-[3-(1-Methyl-1H-pyrazol-4-yl)-phenyl]-pyrimidin-5-yl}-pyrazol-1-yl)-cyclohexanecarboxylic acid (2-methoxy-1-methyl-ethyl)-amide]
100 to 1000 | OCc1cc(-c2cccc(-c3ncc(-c4cnn(C5CCOCC5)c4)cn3)c2)ccn1 [Example 151, [4-(3-{5-[1-(Tetrahydro-pyran-4-yl)-1H-pyrazol-4-yl]-pyrimidin-2-yl}-phenyl)-pyridin-2-yl]-methanol]
< 100 | CN1C[C@]2(CC[C@@H](n3cc(-c4cnc(-c5cccc(-c6cnn(C)c6)c5)nc4)cn3)CC2)CC1=O [Example 262, cis-2-Methyl-8-(4-{2-[3-(1-methyl-1H-pyrazol-4-yl)-phenyl]-pyrimidin-5-yl}-pyrazol-1-yl)-2-aza-spiro[4.5]decan-3-one]
1000 to 5000 | CC(C(=O)N(C)C)n1cc(-c2cnc(-c3cccc(-c4cnn(C)c4)c3)nc2)cn1 (centres unmarked) [Example 99, N,N-Dimethyl-2-(4-{2-[3-(1-methyl-1H-pyrazol-4-yl)-phenyl]-pyrimidin-5-yl}-pyrazol-1-yl)-propionamide]
100 to 1000 | Nc1cc(-c2cccc(-c3ncc(-c4cnn(C5CCOCC5)c4)cn3)c2)ccn1 [Example 136, 4-(3-{5-[1-(Tetrahydro-pyran-4-yl)-1H-pyrazol-4-yl]-pyrimidin-2-yl}-phenyl)-pyridin-2-ylamine]
1000 to 5000 | CCC(CO)NC(=O)Cn1cc(-c2cnc(-c3cccc(-c4cnn(C)c4)c3)nc2)cn1 (centres unmarked) [Example 60, N-(1-Hydroxymethyl-propyl)-2-(4-{2-[3-(1-methyl-1H-pyrazol-4-yl)-phenyl]-pyrimidin-5-yl}-pyrazol-1-yl)-acetamide]
100 to 1000 | CO[C@@H]1COCCC1N1CCC(n2cc(-c3cnc(-c4cccc(-c5cnn(C)c5)c4)nc3)cn2)CC1 (stereo partly drawn) [Example 122, 5-{1-[1-((S)-3-Methoxy-tetrahydro-pyran-4-yl)-piperidin-4-yl]-1H-pyrazol-4-yl}-2-[3-(1-methyl-1H-pyrazol-4-yl)-phenyl]-pyrimidine]
100 to 1000 | CN(C)C(=O)Cn1cc(-c2cnc(-c3cccc(-c4cnn(C)c4)c3)nc2)cn1 [Example 38, N,N-Dimethyl-2-(4-{2-[3-(1-methyl-1H-pyrazol-4-yl)-phenyl]-pyrimidin-5-yl}-pyrazol-1-yl)-acetamide]
100 to 1000 | Cn1cc(-c2cccc(-c3ncc(-c4cnn(C5COC5)c4)cn3)c2)cn1 [Example 141, 2-[3-(1-Methyl-1H-pyrazol-4-yl)-phenyl]-5-(1-oxetan-3-yl-1H-pyrazol-4-yl)-pyrimidine]
100 to 1000 | Cn1cc(-c2cccc(-c3ncc(-c4cn[nH]c4)cn3)c2)cn1 [Example 3, 2-[3-(1-methyl-1H-pyrazol-4-yl)phenyl]-5-(1H-pyrazol-4-yl)pyrimidine]
100 to 1000 | Cn1cc(-c2cccc(-c3ncc(-c4cnn(CC5CNC5)c4)cn3)c2)cn1 [Example 66, 5-(1-Azetidin-3-ylmethyl-1H-pyrazol-4-yl)-2-[3-(1-methyl-1H-pyrazol-4-yl)-phenyl]-pyrimidine hydrochloride]
100 to 1000 | Cn1cc(-c2cc(O)cc(-c3ncc(-c4cnn(C5CCNCC5)c4)cn3)c2)cn1 [Example 34, 3-(1-Methyl-1H-pyrazol-4-yl)-5-[5-(1-piperidin-4-yl-1H-pyrazol-4-yl)-pyrimidin-2-yl]-phenol Formate]
100 to 1000 | Cc1cc(-c2cccc(-c3ncc(-c4cnn(C5CCOCC5)c4)cn3)c2)ccn1 [Example 139, 2-[3-(2-Methyl-pyridin-4-yl)-phenyl]-5-[1-(tetrahydro-pyran-4-yl)-1H-pyrazol-4-yl]-pyrimidine]
< 100 | CC(=O)N1CC[C@H](n2cc(-c3cnc(-c4cccc(-c5cnn(C)c5)c4)nc3)cn2)C[C@@H]1C [Example 248, 1-[(2S,4S)-2-Methyl-4-(4-{2-[3-(1-methyl-1H-pyrazol-4-yl)-phenyl]-pyrimidin-5-yl}-pyrazol-1-yl)-piperidin-1-yl]-ethanone]
100 to 1000 | Cn1cc(-c2cccc(-c3ncc(-c4cnn(CC(O)CO)c4)cn3)c2)cn1 (centres unmarked) [Example 212, 3-(4-{2-[3-(1-Methyl-1H-pyrazol-4-yl)-phenyl]-pyrimidin-5-yl}-pyrazol-1-yl)-propane-1,2-diol]
100 to 1000 | COC1CCN(C(=O)Cn2cc(-c3cnc(-c4cccc(-c5cnn(C)c5)c4)nc3)cn2)C1 (centres unmarked) [Example 90, 1-(3-Methoxy-pyrrolidin-1-yl)-2-(4-{2-[3-(1-methyl-1H-pyrazol-4-yl)-phenyl]-pyrimidin-5-yl}-pyrazol-1-yl)-ethanone]
1000 to 5000 | NCCCn1cc(-c2cccc(-c3ncc(-c4cnn(CC(=O)N5CCCC5)c4)cn3)c2)cn1 [Example 42, 2-[4-(2-{3-[1-(3-Amino-propyl)-1H-pyrazol-4-yl]-phenyl}-pyrimidin-5-yl)-pyrazol-1-yl]-1-pyrrolidin-1-yl-ethanone hydrochloride]
1000 to 5000 | COCC(O)Cn1cc(-c2cnc(-c3cccc(-c4cnn(C)c4)c3)nc2)cn1 (centres unmarked) [Example 35, 1-Methoxy-3-(4-{2-[3-(1-methyl-1H-pyrazol-4-yl)-phenyl]-pyrimidin-5-yl}-pyrazol-1-yl)-propan-2-ol]
100 to 1000 | COCC1CCCN(C(=O)Cn2cc(-c3cnc(-c4cccc(-c5cnn(C)c5)c4)nc3)cn2)C1 (centres unmarked) [Example 88, 1-(3-Methoxymethyl-piperidin-1-yl)-2-(4-{2-[3-(1-methyl-1H-pyrazol-4-yl)-phenyl]-pyrimidin-5-yl}-pyrazol-1-yl)-ethanone]
100 to 1000 | Cn1cc(-c2cccc(-c3ncc(-c4cnn(CC(=O)N5C6CCC5CC(O)C6)c4)cn3)c2)cn1 (centres unmarked) [Example 128, 1-(3-Hydroxy-8-aza-bicyclo[3.2.1]oct-8-yl)-2-(4-{2-[3-(1-methyl-1H-pyrazol-4-yl)-phenyl]-pyrimidin-5-yl}-pyrazol-1-yl)-ethanone]
100 to 1000 | Cn1cc(-c2cccc(-c3ncc(-c4cnn(CCN5CCCCC5)c4)cn3)c2)cn1 [Example 57, 2-[3-(1-Methyl-1H-pyrazol-4-yl)-phenyl]-5-[1-(2-piperidin-1-yl-ethyl)-1H-pyrazol-4-yl]-pyrimidine]
< 100 | CO[C@@H]1CCN(C(=O)[C@H]2CC[C@H](n3cc(-c4cnc(-c5cccc(-c6cnn(C)c6)c5)nc4)cn3)CC2)C1 [Example 168, ((R)-3-Methoxy-pyrrolidin-1-yl)-trans-[4-(4-{2-[3-(1-methyl-1H-pyrazol-4-yl)-phenyl]-pyrimidin-5-yl}-pyrazol-1-yl)-cyclohexyl]-methanone]
100 to 1000 | Cn1cc(-c2cccc(-c3ncc(-c4cnn(CC(=O)N5CCC[C@H]5CO)c4)cn3)c2)cn1 [Example 81, 1-((S)-2-Hydroxymethyl-pyrrolidin-1-yl)-2-(4-{2-[3-(1-methyl-1H-pyrazol-4-yl)-phenyl]-pyrimidin-5-yl}-pyrazol-1-yl)-ethanone]

— patent US9216991B2 (Ares Trading S.A., priority 2012, dated 2015)
